# Results published in the SangsterLogP compilation.
# Experiment: method code SF-AS, from DOI: 10.1021/jf00106a008
# Details: pH 7.3
row,Compound,logD
1,CCCCCCOn1c(=O)[nH]c(C)c(Br)c1=O,2.48
2,CCCCCCCCOn1c(=O)[nH]c(C)c(Br)c1=O,3.38
3,CCCOn1c(=O)[nH]c(CCC)c(Br)c1=O,1.73
4,CCCOn1c(=O)c(Br)c(C)n(C)c1=O,0.72
5,CCCCCCCCCCOn1c(=O)[nH]c(C)c(Br)c1=O,4.65
6,C#CCOn1c(=O)[nH]c(C)c(Br)c1=O,-0.1
7,Cc1[nH]c(=O)n(OCCCl)c(=O)c1Br,0.3
8,CCCOn1c(=O)cc(C)[nH]c1=O,0.3
9,CCCCCOn1c(=O)[nH]c(C)c(Br)c1=O,1.69
10,C=CCOn1c(=O)[nH]c(C)c(Br)c1=O,0.32
11,CCCOn1c(=O)[nH]c(C)c(SC#N)c1=O,-0.22

# The next lines start with the values.
row,logD,Compound
1,1.26,CCCCOn1c(=O)[nH]c(C)c(Br)c1=O
2,0.45,Cc1[nH]c(=O)n(OC(C)C)c(=O)c1Br
3,1.23,Cc1[nH]c(=O)n(OCC(C)C)c(=O)c1Br
4,-0.3,COn1c(=O)[nH]c(C)c(Br)c1=O
5,1.11,CCC(C)On1c(=O)[nH]c(C)c(Br)c1=O (stereo not drawn)
6,0.76,CCCOn1c(=O)[nH]c(C)c(Br)c1=O
7,0.11,CCOn1c(=O)[nH]c(C)c(Br)c1=O
